Here are results for eight molecules from patent US20100009957A1, “NOVEL INHIBITORS OF BETA-LACTAMASE” (priority 2006, published 2010).

One assay addresses AmpC (P. aeruginosa.) (Pseudomonas aeruginosa, UniProt P24735). The assay can be described thus: biochemical. The conditions noted are these: nitrocefin substrate, pH 7. The procedure: The Class C enzyme activities were measured in the presence of the test inhibitor in spectrophotometric assay against the commercially available substrate, nitrocefin. The enzyme AmpC (P. aeruginosa.), and the substrate, were dissolved in 100 mM KH2PO4 buffer (pH 7). The buffer also contains 0.005% BSA. The test inhibitor was dissolved in DMSO and diluted 1:20 in the assay, resulting in a final concentration range of 50 μM to 0.0002 μM. In a 96-well microplate, the test inhibitor was incubated with the beta-lactamase enzyme for 40 minutes at ambient temperature, the substrate solution was added, and the incubation continued for another 40 minutes. The spectrophotomertric reaction was quenched by the addition of 2.5N acetic acid and the absorbance at 492 nm was measured. The IC50 value was determined from semi logarithmic plots of enzyme inhibition versus inhibitor concentration, with a curve generated using a 4-parameter fit.

Assay [1] relates to P. aeruginosa strain CL5701. Kind of assay: Synergy assay (checkerboard) with imipenem. It counts as cell-based, Pseudomonas aeruginosa. Conditions: for In Vitro 2X Synergy CL5701: concentration for 2X synergy with imipenem against P. aeruginosa strain CL5701; for In Vitro 8X Synergy CL5701: concentration for 8X synergy with imipenem against P. aeruginosa strain CL5701; for In Vitro 16X Synergy CL5701: concentration for 16X synergy with imipenem against P. aeruginosa strain CL5701. The source says: The assay determines the concentration of a β-lactamase inhibitor required to reduce the MIC of a β-lactam antibiotic by one-half, one-quarter, one-eighth, one-sixteenth and one-thirty-second against strains of bacteria normally resistant to the antibiotic in question. This is accomplished by titrating the BLI in a serial dilution across a microtiter plate while at the same time titrating the antibiotic in a serial dilution down the microtiter plate and then inoculating the plate with the bacterial strain in question and allowing the bacteria to grow up overnight. Each well in this microplate checkerboard contains a different combination of concentrations of the inhibitor and the antibiotic allowing a full determination of any synergy between the two.
• CL 5701 (Pseudomonas aeruginosa; Pa AmpC)/Imipenem • MB 2646 (Enterobacter cloacae; P99)/Ceftazidime • CL 5513 (Klebsiella pneumoniae; SHV-5)/Ceftazidime • CL 6188 (Acinetobacter baumanii; Oxa40)/Imipenem • CL 6569 (Klebsiella pneumoniae; KPC-2)/Imipenem • CL 5761 (Klebsiella pneumoniae; KPC-3)/Imipenem • CLB 21648 (Acinetobacter baumanii; Ab AmpC)/Imipenem
• 1. […] All wells in row A of MIC 2000 microtiter plates are filled with 100 μL of 2× MHBII+2% DMSO. • 3. […] 100 μL of 2× the final antibiotic concentration wanted is added to wells A2-A12 of the MIC 2000 plates. • 5. 100 μL is serially diluted from row A to row G of each MIC 2000 plate. • 6. 100 μL is removed from each well in row G of each MIC 2000 plate. • 7. 100 μL of 2× the final inhibitor concentration wanted (in MHBII+1% DMSO) is added to all wells in column 1 of the microtiter plates. • 8. 100 μL is serially diluted from column 1 to column 11 of each MIC 2000 plate. • 9. 100 μL is removed from each well in column 11 of each MIC 2000 plate. • 10. Plates are then inoculated with an overnight growth (in TSB) of the strain to be tested using an MIC 2000 inoculator. • 11. Plates are left at 37° C. for about 20 hours and scored for growth by eye.
Synergy may be expressed as a ratio of the minimum inhibitory concentration (MIC) of an antibiotic tested in the absence of a β-lactamase inhibitor to the MIC of the same antibiotic tested in the presence of the β-lactamase inhibitor. […] Alternatively, the synergy effect may be expressed as a factor, again, utilizing a concentration of the BLI to lower the MIC of the antibiotic.
Representative compounds of the present invention display a synergy effect. For example, the compounds of Examples 1 to 20 were determined to have 2× synergy concentrations in a range of from about 100 μM or less.

Setting [2] is: P. aeruginosa AmpC IC50, 40 min preincubation.
Setting [3] is: 40 min preincubation, read-out: P. aeruginosa AmpC IC50.

Read-outs that look alike come from different tables or passages of the source. Bounds are passed on as bounds.

Sequence of AmpC (P. aeruginosa.) (P24735 27-397): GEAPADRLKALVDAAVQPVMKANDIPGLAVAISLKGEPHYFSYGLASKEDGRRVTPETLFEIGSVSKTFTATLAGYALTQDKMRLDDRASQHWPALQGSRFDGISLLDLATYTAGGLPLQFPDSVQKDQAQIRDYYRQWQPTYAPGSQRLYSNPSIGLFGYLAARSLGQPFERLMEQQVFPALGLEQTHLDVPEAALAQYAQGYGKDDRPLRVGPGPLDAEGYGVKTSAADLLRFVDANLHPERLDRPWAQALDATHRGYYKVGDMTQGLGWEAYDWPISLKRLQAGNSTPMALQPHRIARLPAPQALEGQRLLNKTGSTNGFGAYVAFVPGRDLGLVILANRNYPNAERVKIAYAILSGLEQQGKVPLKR

On to `O=C(NC1CCCCNCC1)N1CC[C@@H]2[C@H]1C(=O)N2S(=O)(=O)O` (single isomer, unassigned; isomer a) [Example 17], for which half-maximal inhibition against AmpC (P. aeruginosa.) (setting [2]) (IC50) required 1300 nM. Moreover, in assay [1], the “In Vitro 2X Synergy CL5701” value turned out to be 3.1 µM, the “In Vitro 8X Synergy CL5701” value was 12.5 µM and the “In Vitro 16X Synergy CL5701” value was 50 µM.

For `O=C(N[C@H]1CNCCOC1)N1CC[C@@H]2[C@H]1C(=O)N2S(=O)(=O)O` [Example 8, (1S,5R)-2-{[(6S)-1,4-Oxazepan-6-ylamino]carbonyl}-7-oxo-2,6-diazabicyclo[3.2.0]heptane-6-sulfonic acid], at AmpC (P. aeruginosa.) (setting [3]), the IC50 – broadly, the point on the concentration scale where inhibition reaches its midpoint – is 1100 nM. Further, in assay [1], the “In Vitro 2X Synergy CL5701” value stood at 6.3 µM, the “In Vitro 8X Synergy CL5701” value was 50 µM and the “In Vitro 16X Synergy CL5701” value was found to be 100 µM.

On AmpC (P. aeruginosa.) (setting [2]), `O=C(NC1CCNCC1)N1CC[C@@H]2[C@H]1C(=O)N2S(=O)(=O)O` [Compound A, reference compound] registered an IC50 of 6800 nM. Also, in assay [1], the “In Vitro 2X Synergy CL5701” value is 3.7 µM, the “In Vitro 8X Synergy CL5701” value was found to be 21 µM and the “In Vitro 16X Synergy CL5701” value worked out at 67 µM.

With `O=C(N[C@H]1CCCNCC1)N1CC[C@@H]2[C@H]1C(=O)N2S(=O)(=O)O` [Example 1], the IC50 at AmpC (P. aeruginosa.) (setting [3]) came to 1200 nM. Moreover, in assay [1], the “In Vitro 2X Synergy CL5701” value is 2.3 µM and the “In Vitro 16X Synergy CL5701” value was found to be 25 µM.

For `O=C(NC1CCCCNCC1)N1CC[C@@H]2[C@H]1C(=O)N2S(=O)(=O)O` (single isomer, unassigned; isomer b) [Example 18], the midpoint of inhibition against AmpC (P. aeruginosa.) (setting [2]), the IC50, lay at 25000 nM. In assay [1], the “In Vitro 2X Synergy CL5701” value stood at 12.5 µM, the “In Vitro 8X Synergy CL5701” value is over 100 µM and the “In Vitro 16X Synergy CL5701” value is over 100 µM.

`O=C(NC1CCCCCC1)N1CC[C@@H]2[C@H]1C(=O)N2S(=O)(=O)O` [Example 3] yielded an IC50 at AmpC (P. aeruginosa.) (setting [2]) of 400 nM. In assay [1], the “In Vitro 2X Synergy CL5701” value came out at 100 µM, the “In Vitro 8X Synergy CL5701” value was over 100 µM and the “In Vitro 16X Synergy CL5701” value is over 100 µM.

With `O=C(N[C@@H]1CNCCOC1)N1CC[C@@H]2[C@H]1C(=O)N2S(=O)(=O)O` [Example 7, (1S,5R)-2-{[(6R)-1,4-Oxazepan-6-ylamino]carbonyl}-7-oxo-2,6-diazabicyclo[3.2.0]heptane-6-sulfonic acid], the IC50 at AmpC (P. aeruginosa.) (setting [3]) amounted to 600 nM. Also, in assay [1], the “In Vitro 2X Synergy CL5701” value worked out at 6.3 µM, the “In Vitro 8X Synergy CL5701” value is 25 µM and the “In Vitro 16X Synergy CL5701” value amounted to 100 µM.

In the case of `O=C(N[C@@H]1CCCNCC1)N1CC[C@@H]2[C@H]1C(=O)N2S(=O)(=O)O` [Example 2], the IC50 on AmpC (P. aeruginosa.) (setting [3]) was 4000 nM. For the same molecule, in assay [1], the “In Vitro 2X Synergy CL5701” value was 3.1 µM, the “In Vitro 8X Synergy CL5701” value stood at 25 µM and the “In Vitro 16X Synergy CL5701” value was 100 µM.
